Reference: ChEMBL document CHEMBL1201862, “PubChem BioAssay data set” (2004)
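A five-concentration, 48-hour dose response in 96-well plates underlies each endpoint, interpolated linearly between surrounding concentrations. Here, GI50 denotes the concentration required for 50% inhibition of growth.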 The source made the active and inactive calls. Rule as the data show it: active = GI50 up to about 1.1 µM and inactive = higher.

Tests used:
Assay in all cases: NCI tumour cell line growth inhibition, 48 h
[1] = system: SNB-19
[2] = system: Malme-3M
[3] = system: SK-MEL-2
[4] = system: OVCAR-4
[5] = system: COLO 205
[6] = system: SK-OV-3
[7] = system: NCI-H23
[8] = system: TK-10
[9] = system: HCC 2998
[10] = system: OVCAR-8
[11] = system: CCRF-CEM
[12] = system: SK-MEL-5
[13] = system: UACC-62
[14] = system: SN12C
[15] = system: RXF 393
[16] = system: SW-620

Measured: GI50

O=C(Nc1ccc(Cl)cc1)/C(Cc1cccc[n+]1[O-])=N\Nc1ccc([N+](=O)[O-])cc1[N+](=O)[O-]
inactive: [1] > 100 µM | [2] > 100 µM | [3] > 100 µM | [4] > 100 µM | [5] > 100 µM | [6] > 100 µM | [7] > 100 µM | [8] > 100 µM | [9] > 100 µM | [10] > 100 µM | [11] > 100 µM | [12] > 100 µM | [13] > 100 µM | [14] > 100 µM | [15] > 100 µM | [16] > 100 µM

Cc1ccc(NC(=O)/C(=N/NC(=O)C[N+](C)(C)C)c2nc3ccccc3nc2O)cc1
inactive: [1] > 100 µM | [2] > 100 µM | [3] > 100 µM | [4] > 100 µM | [5] 76.9 µM | [6] > 100 µM | [7] > 100 µM | [8] > 100 µM | [9] > 100 µM | [10] > 100 µM | [12] > 100 µM | [13] > 100 µM | [14] > 100 µM | [15] > 100 µM | [16] 15.7 µM

CC(=O)OCC1OC(Sc2ccccn2)C=CC1OC(C)=O (stereo unspecified)
inactive: [1] > 100 µM | [2] > 100 µM | [4] > 100 µM | [5] > 100 µM | [6] > 100 µM | [7] > 100 µM | [8] > 100 µM | [9] > 100 µM | [10] > 100 µM | [11] > 100 µM | [12] > 100 µM | [13] > 100 µM | [14] > 100 µM | [15] > 100 µM | [16] > 100 µM

C=CC1=C(C)/C(=C/C2=NC(=C\c3[nH]c(CC4NC(=O)C(C)/C4=C\C)c(C)c3CCC(=O)O)/C(CC(=O)O)=C2C)NC1=O (stereo unspecified)
inactive: [1] > 100 µM | [2] > 100 µM | [3] > 100 µM | [4] > 100 µM | [5] > 100 µM | [6] > 100 µM | [7] > 100 µM | [8] > 100 µM | [9] > 100 µM | [10] > 100 µM | [11] > 100 µM | [13] > 100 µM | [14] > 100 µM | [15] > 100 µM | [16] > 100 µM

Cc1ccccc1-n1c(=S)[nH]c2c(sc(=O)n2-c2ccccc2C)c1=O
inactive: [1] > 100 µM | [2] > 100 µM | [3] > 100 µM | [4] > 100 µM | [5] > 100 µM | [6] > 100 µM | [7] > 100 µM | [9] > 100 µM | [10] > 100 µM | [11] > 100 µM | [12] > 100 µM | [13] > 100 µM | [14] > 100 µM | [15] > 100 µM | [16] > 100 µM

Cc1ccc(NC(=O)CC2C(=O)Nc3ccccc3S2(=O)=O)cc1C (stereo unspecified)
inactive: [1] > 100 µM | [2] > 100 µM | [3] > 100 µM | [4] > 100 µM | [7] > 100 µM | [8] > 100 µM | [9] > 100 µM | [10] > 100 µM | [11] > 100 µM | [12] > 100 µM | [13] 84.7 µM | [14] > 100 µM | [15] > 100 µM | [16] > 100 µM

O=C1C2ON3c4ccccc4C(=O)C3(c3ccccc3)C2C(=O)N1c1ccccc1 (stereo unspecified)
inactive: [1] > 100 µM | [2] > 100 µM | [4] > 100 µM | [5] > 100 µM | [6] > 100 µM | [7] > 100 µM | [9] > 100 µM | [10] > 100 µM | [11] > 100 µM | [12] > 100 µM | [13] > 100 µM | [14] > 100 µM | [15] > 100 µM | [16] > 100 µM

Cc1c(-c2nnc(-c3ccccc3)o2)c(=O)n(-c2ccccc2)n1C
inactive: [1] > 100 µM | [2] > 100 µM | [3] > 100 µM | [4] > 100 µM | [5] > 100 µM | [6] > 100 µM | [7] > 100 µM | [8] > 100 µM | [9] > 100 µM | [10] > 100 µM | [11] > 100 µM | [13] > 100 µM | [14] > 100 µM | [15] > 100 µM | [16] > 100 µM

CN1C2(c3ccccc3)c3c(-c4ccccc4)sc(-c4ccccc4)c3C1(c1ccccc1)C1C(=O)N(c3ccccc3)C(=O)C12 (stereo unspecified)
inactive: [1] > 100 µM | [2] > 100 µM | [4] > 100 µM | [5] > 100 µM | [6] > 100 µM | [7] > 100 µM | [8] > 100 µM | [9] > 100 µM | [10] > 100 µM | [11] > 100 µM | [12] > 100 µM | [13] > 100 µM | [14] > 100 µM | [15] > 100 µM | [16] > 100 µM

Brc1ccc(N2C[N+](c3ccc(Br)cc3)=NC(c3ccccc3)=N2)cc1.[O-][Cl+3]([O-])([O-])[O-]
inactive: [1] > 100 µM | [2] > 100 µM | [3] 46.6 µM | [4] > 100 µM | [5] 63.4 µM | [6] > 100 µM | [7] 46.9 µM | [8] > 100 µM | [9] > 100 µM | [10] > 100 µM | [12] 76.4 µM | [13] > 100 µM | [14] > 100 µM | [15] > 100 µM | [16] > 100 µM

CN(C)c1ccc(/C=N/C23CC4CC(CC(C4)C2)C3)cc1
inactive: [1] > 100 µM | [2] > 100 µM | [3] > 100 µM | [4] > 100 µM | [5] > 100 µM | [6] > 100 µM | [7] > 100 µM | [8] > 100 µM | [9] > 100 µM | [10] > 100 µM | [11] > 100 µM | [12] > 10 µM | [13] > 100 µM | [14] > 100 µM | [15] > 100 µM | [16] > 100 µM

C=CC1(CC)/C(=N\O)C(CC)(CC)C(=O)N1O (stereo unspecified)
inactive: [1] > 100 µM | [2] > 100 µM | [3] > 100 µM | [4] > 100 µM | [5] > 100 µM | [6] > 100 µM | [7] > 100 µM | [8] > 100 µM | [9] > 100 µM | [10] > 100 µM | [11] > 100 µM | [12] > 100 µM | [13] > 100 µM | [14] > 100 µM | [15] > 100 µM | [16] > 100 µM

CC(=O)NNc1nc(C)c(C(=O)/C=C/c2ccc(Cl)c(Cl)c2)s1
inactive: [1] > 100 µM | [2] > 100 µM | [3] > 100 µM | [5] > 100 µM | [6] > 100 µM | [7] > 100 µM | [8] > 100 µM | [9] > 100 µM | [10] > 100 µM | [11] 70.5 µM | [12] > 100 µM | [13] > 100 µM | [14] > 100 µM | [15] > 100 µM | [16] > 100 µM
